Here are results for ten substances from patent US20090012000A1, “Anti-Viral Peptide and Use Thereof” (TOAGOSEI CO., LTD., priority 2006, published 2009).

The subject of experiment [1] is HVT (turkey herpes virus). Description: HVT multiplication suppression test in CEF cells, titer by plaque assay. The format is cell-based, turkey herpes virus (FC-126 strain). The note with it: for Ratio (relative ratio of virus titer, no peptide added = 1) / Titer: CEF cells, six days; for antiviral activity (viral multiplication suppression effect): result in words, peptide 10, 50 and 100 μM. As for the experimental part:
The antiviral activity (viral multiplication suppression effect) was examined for each sample antiviral peptide and each comparative sample peptide. In the present example, HVT (turkey herpes virus) was used as the target virus, and the titer was measured based on the plaque assay method.
That is to say, chicken embryo fibroblast (CEF) cells prepared from SPF (specific pathogen-free) embryonated hen's egg (purchased from Nisseiken Co., LTD) were monolayer-cultured at 37° C. using Leibowitz-McCoy 5A (1:1) mixed culture medium (LM medium). The culture was peeled from the culture dish by trypsin digestion and transferred to a 50 mL centrifugation tube. After centrifugal separation, the supernatant was discarded and the culture was suspended with LM medium.
HVT (FC-126 strain used as vaccine), which virus titer was measured beforehand, was diluted with this cell suspension to as to have 100 plaque forming units (PFU) or 400 PFU per 2 mL. This dilute solution was dispensed in each well of a 6-well plate, 2 mL in each. Then, the test peptides (Samples 1 to 4, Comparative Samples 1 to 4) were diluted with PBS to be at 2.1 mM, 1050 μM and 210 μM, and added to each well, 0.1 mL in each. The final concentration of each well after addition was respectively 100 μM, 50 μM and 10 μM. A well to which 0.1 mL of PBS not containing peptide was added was prepared as a reference.
Thereafter, the above 6-well plate was placed in a CO2 incubator (5% CO2), cultured at 37° C. for six days, and the number and size of HVT plaques that appeared were observed. Here, comparing with wells with no peptide added, when a drop in the number of plaques or a reduction in the size of plaques was not observed even when a peptide was added, the viral multiplication suppression effect of this peptide was determined to be none. On the other hand, a test peptide for which a well with smaller plaque number or plaque size was present, the titer of each well was measured, and the viral multiplication suppression effect (antiviral activity) was quantified by comparing with the quantity of virus with no peptide added.
For the method for measuring the HVT virus titer, cells in each well were recovered by trypsin digestion, serially diluted, mixed again with CEF cells, dispensed in a 6-well plate and cultured at 37° C., and the number of plaques appeared after six days were counted. The relative ratio of virus titer at each peptide concentration was determined with the virus titer (PFU/mL) of the well with no peptide added being 1. That is to say, the viral multiplication suppression effect of each test peptide can be compared using the value of this relative ratio (Ratio).

Experiment [2] relates to A/New Calcdonia/20/99 (H1N1) influenza virus. Description: Influenza virus multiplication inhibition assay (plaque assay) in MDCK cells. The format is cell-based. The conditions noted are these: 48 hours; for Infectivity Titer, Trial 1: control 1.1 × 10^9; for Infectivity Titer, Trial 2: control 2.1 × 10^9.

Ends that are not written are not given here.

With “RQARRNRRRRWR EFFDARE-CONH2 (RQARRNRRRRWREFFDARE-NH2) [Sample 2]”, in experiment [1] (peptide 100 μM), the “Ratio (relative ratio of virus titer, no peptide added = 1)” value came to 0.80.

On to “RKKKRKV FKVKTTAPRRYCVRPN-CONH2 (RKKKRKVFKVKTTAPRRYCVRPN-NH2) [Sample 5]”, for which the “Infectivity Titer, Trial 1” value in experiment [2] (peptide 50 μM) was 1.0 × 10^9 PFU/mL; in experiment [2] (peptide 100 μM), 3.5 × 10^8 PFU/mL. In addition, the “Infectivity Titer, Trial 2” value was 1.2 × 10^9 PFU/mL in experiment [2] (peptide 50 μM) and 6.9 × 10^8 PFU/mL in experiment [2] (peptide 100 μM).

On to “EFFDAPE-COOH (EFFDAPE-OH; listed as Homo sapiens) [Comparative Sample 3, reference compound]”, for which, in experiment [1], the “antiviral activity (viral multiplication suppression effect)” value (shortened to “antiviral activity”) is listed as “no viral multiplication suppression effect”.

As for “RKKKRKV-COOH (RKKKRKV-OH) [Comparative Sample 2, reference compound]”, the “antiviral activity” value in experiment [1] is “no viral multiplication suppression effect”.

“RQARRNRRRRWR-COOH (RQARRNRRRRWR-OH) [Comparative Sample 1, reference compound]”: the “antiviral activity” value in experiment [1] was “no viral multiplication suppression effect”.

With “RQARRNRRRRWR FKVKTTSPKKYFVRPN-CONH2 (RQARRNRRRRWRFKVKTTSPKKYFVRPN-NH2) [Sample 4]”, the “Ratio (relative ratio of virus titer, no peptide added = 1)” value in experiment [1] (peptide 10 μM) is 1.0; in experiment [1] (peptide 50 μM), 0.46; in experiment [1] (peptide 100 μM) it was 0.16. In addition, the values for the Titer entry in experiment [1] (peptide 10 μM), in experiment [1] (peptide 50 μM) and in experiment [1] (peptide 100 μM) were “(7.6 × 10^4) PFU/mL”, “(3.5 × 10^4) PFU/mL” and “(1.2 × 10^4) PFU/mL”, respectively. Moreover, the “antiviral activity” value in experiment [1] is recorded as “excellent antiviral activity”. Also, the entries for the “Infectivity Titer, Trial 1” value in experiment [2] (peptide 100 μM) and in experiment [2] (peptide 200 μM) were 5.8 × 10^8 PFU/mL and 2.8 × 10^8 PFU/mL, respectively.

Regarding “FKIKITTAPKRYCVRPN-NH2 [Comparative Sample 4, reference compound]”, the “antiviral activity” value in experiment [1] was “no viral multiplication suppression effect”.

As to “RKKKRKV FKVKTTAPKRYCVRPN-CONH2 (RKKKRKVFKVKTTAPKRYCVRPN-NH2) [Sample 6]”, the entries for the “Infectivity Titer, Trial 1” value in experiment [2] (peptide 100 μM) and in experiment [2] (peptide 200 μM) were 3.3 × 10^8 PFU/mL and 1.0 × 10^8 PFU/mL, respectively.

In the case of “RKKKRKV FKIKTTAPKRYCVRPN-CONH2 (RKKKRKVFKIKTTAPKRYCVRPN-NH2) [Sample 3]”, in experiment [1] (peptide 100 μM), the “Ratio (relative ratio of virus titer, no peptide added = 1)” value was determined as 0.30. Further, the “antiviral activity” value in experiment [1] was “excellent antiviral activity”.

As for “RQARRNRRRRWR EFFDAPE-CONH2 (RQARRNRRRRWREFFDAPE-NH2) [Sample 1]”, in experiment [1] (peptide 100 μM), the “Ratio (relative ratio of virus titer, no peptide added = 1)” value came to 0.90.
